From patent US20210113519A1, “Compositions and Methods for Modulating Permeability of Biological Barriers” (Carnegie Mellon University, priority 2018, published 2021)
Entries after “also recorded” stand apart in the source; their conditions may differ.

Experiments:
intestinal epithelium = test: Insulin delivery study: blood glucose in mice after oral enhancer and intestinal insulin injection; format: in vivo
Method: For insulin delivery studies, mice were orally gavaged with PBS (for control) or strawberry treatments (600 mg/kg STRB PPh or 40 mg/kg pelargonidin). One hour later, their initial blood sugar was measured and the animals were placed under anesthesia. Their intestines were surgically exposed, and insulin was injected at the predetermined dose (1 unit per kg body weight unless otherwise specified) into the duodenum of the small intestine, avoiding digestion in the stomach. The mice were closed and secured with tissue adhesive, then kept under anesthesia as their blood sugar levels were monitored each hour for five hours. For comparison to the current standard of insulin delivery, subcutaneous injections were given at 1 U/kg to additional mice, into the scruff on their necks. To determine areas above the curve for each mouse, trapezoidal integration was used to sum the area between known points on the blood glucose curve and the starting blood glucose value for the individual animal.

Caco-2 monolayers = test: Calcein permeability assay through Caco-2 monolayers; format: cell-based, human; details: for calcein permeability, known phenolic compounds from strawberry: 1 mg/mL; for calcein permeability, anthocyanidins: applied at 0.33 mg/ml, vs untreated control
Method: (§1) Caco-2 Cell Monolayers: Caco-2 cells were seeded in Basal Seeding Medium (BSM) on a collagen-coated, 24-Multiwell Insert […]® Plate at a concentration of 2×10^5 cells per well. The plate was incubated at 37° C. for one to two days. On the third day, the BSM was replaced with Enterocyte Differentiation Medium (EDM). The plate was then incubated one to two more days at 37° C. to allow complete formation of differentiated monolayers.
Permeability Assays: The paracellular diffusion markers were applied at 0.5 mM (calcein) or 0.1 mM (4 kDa FITC-Dextran), dissolved in EDM with the treatment extracts, to the apical side of fully-formed monolayers (TEER>200 Ω·cm^2). Fresh EDM with the markers was used as a negative control. After one hour, media in the basal chambers was sampled and examined for fluorescence at 495/515 nm. Application of calibration curves yielded an amount of mass transferred across each monolayer, which was used in the permeability equation Papp=ΔM/CaAΔt, where Papp is the apparent permeability through the monolayer, ΔM is the marker mass in the basal compartment, Ca is the apical marker concentration, A is the monolayer area, and Δt is the time between samples. Permeability measurements are expressed as the ratio of monolayer permeability at 3 hours after treatment addition to permeability before treatment addition, normalized to any change in negative control monolayers during that time.

[1] = tested on: Caco-2 intestinal epithelial cell monolayers; test: TEER (transepithelial electrical resistance) assay on Caco-2 monolayers; format: cell-based, human
Method: as §1
TEERAssay: All TEER (transepithelial electrical resistance) values were measured using a voltohmmeter. Between each TEER measurement, the plate was incubated at 37° C. for a minimum of fifteen minutes to allow the cells to rest. To ensure that all the wells contained fully formed Caco-2 monolayers (>200 Ω·cm^2), initial TEER values were measured prior to treatment exposure. After adding the extracts to each well, TEER values were measured at defined intervals for a total of three hours. The treatments were then aspirated, and the cells rinsed with PBS before refilling the wells with fresh EDM. The plates were then left in the incubator at 37° C. for 24 hours, when recovery TEER values were measured.

intestinal barrier = test: Oral FITC-DX4 (4 kDa dextran) absorption in mice after oral enhancer; format: in vivo; details: pelargonidin 40 mg/kg oral, then FITC-DX4 600 mg/kg oral
Method: Examination of strawberry extract efficacy in vivo: For dextran efficacy studies, fasted mice were orally gavaged with 600 mg/kg STRB PPh solutions or 40 mg/kg pelargonidin solutions, then gavaged three hours later with 600 mg/kg FITC-DX4. Three hours after the dextran gavage, blood was collected and centrifuged. The serum was removed and examined for FITC concentration by reading for fluorescence on the plate reader and comparing to a unique calibration curve for each experiment. For larger macromolecule studies, 40 kDa dextran (FITC-DX40) was substituted at the same 600 mg/kg concentration.

[2] = pelargonidin between 0.33 and 1.00 mg/mL

insulin: bovine pancreas insulin [reference compound]
blood glucose response to subcutaneous insulin (intestinal epithelium; 1 U/kg subcutaneous insulin dose): pronounced but brief response

OC[C@H]1O[C@@H](Oc2cc3c(O)cc(O)cc3[o+]c2-c2ccc(O)cc2)[C@H](O)[C@@H](O)[C@@H]1O [callistephin, reference compound]
calcein permeability, known phenolic compounds from strawberry (Caco-2 monolayers): not an effective permeation enhancer

COc1cc(-c2[o+]c3cc(O)cc(O)c3cc2O)cc(OC)c1O.[Cl-] [malvidin]
calcein permeability, anthocyanidins (Caco-2 monolayers): increase the permeability of calcein; also recorded: statistically significant increases

Oc1ccc(-c2[o+]c3cc(O)cc(O)c3cc2O)cc1 [pelargonidin]
calcein permeability, known phenolic compounds from strawberry (Caco-2 monolayers): effective permeation enhancer; also recorded: significantly increased the permeability of calcein | calcein permeability, anthocyanidins (Caco-2 monolayers): increase the permeability of calcein; also recorded: statistically significant increases | improvement of calcein permeability, dose response (Caco-2 monolayers; [2]): dose dependence was also evident | permeabilization and recovery of barrier function ([1]; 0.33 mg/ml): substantial yet reversible permeabilization | permeabilization and recovery of barrier function ([1]; 0.67 mg/ml): substantial yet reversible permeabilization | permeabilization and recovery of barrier function ([1]; 1 mg/ml): opened the tight junctions beyond their ability to recover barrier function | recovery of barrier function within 24 hours (TEER) ([1]; pelargonidin 0.33, 0.67 and 1.00 mg/mL): only the two lower concentrations recovered their barrier function | TEER response (opening of tight junctions) [1, 2]: dose-dependent opening of the tight junctions | duration of hypoglycemia vs 1 U/kg subcutaneous insulin (intestinal epithelium; pelargonidin 40 mg/kg oral + 1 U/kg intestinal insulin): sustained hypoglycemia several hours longer | total pharmacodynamic effect (area above the curve) relative to subcutaneous insulin (intestinal epithelium; pelargonidin 40 mg/kg oral + 1 U/kg intestinal insulin vs 1 U/kg subcutaneous): approximately 1.3 times | relative bioactivity value (intestinal epithelium; pelargonidin 40 mg/kg oral + 1 U/kg intestinal insulin vs 1 U/kg subcutaneous insulin, AAC): 130% | blood glucose response to intestinal insulin (intestinal epithelium; pelargonidin 40 mg/kg oral, one hour later 1 U/kg insulin intestinal injection, vs saline gavage): substantial reduction in blood glucose; also recorded: sustained reductions in blood glucose levels | FITC-DX4 absorption across the intestinal barrier vs saline (PBS) gavage (intestinal barrier): doubled

COc1cc(-c2[o+]c3cc(O)cc(O)c3cc2O)cc(O)c1O [petunidin]
calcein permeability, anthocyanidins (Caco-2 monolayers): increase the permeability of calcein; also recorded: statistically significant increases
